System: A. fumigatus mutant strain ΔsidA/ΔftrA
Test: Siderophore utilization growth assay
Type: cell-based, Aspergillus fumigatus
Conditions: 37 °C; for concentration of [Fe]siderophore at which growth was supported: 48 h incubation; for degree of utilization / growth support by [Fe]siderophore: 0.1-100 μM [Fe]siderophore in AMM
Text: For siderophore utilization growth assays, A. fumigatus mutant strain ΔsidA/ΔftrA [7], which can grow only in the presence of externally added iron-siderophores or at high iron concentrations, was used. The fungal strain was inoculated in iron-deficient culture as described above.
To investigate the ability or inability of A. fumigatus to take up and utilize [Fe]siderophores as iron source, a growth assay with the A. fumigatus mutant strain ΔsidA/ΔftrA was employed. In a 24-well plate, aliquots of 10^3 conidia of mutant strain were point inoculated on 1 ml of AMM containing 0.1, 1, 10, 50, or 100 μM of [Fe]siderophore and incubated at 37 °C for 48 h. For the control, fungi were grown in iron-limited AMM without adding [Fe]siderophore.

Compound: CC(=O)NC1CCCN([O-])C(=O)C=C(C)CCOC(=O)C(NC(C)=O)CCCN([O-])C(=O)C=C(C)CCOC(=O)C(N)CCCN([O-])C(=O)C=C(C)CCOC1=O.[Fe+3] (stereo not shown) [[Fe]DAFC, diacetyl[Fe]FSC]
- concentration of [Fe]siderophore at which growth was supported: 0.1 µM

Compound: CCC(=O)NC1CCCN([O-])C(=O)C=C(C)CCOC(=O)C(NC(C)=O)CCCN([O-])C(=O)C=C(C)CCOC(=O)C(NC(C)=O)CCCN([O-])C(=O)C=C(C)CCOC1=O.[Fe+3] (stereo not shown) [[Fe]DAPFC, propanoyl[Fe]DAFC]
- degree of utilization / growth support by [Fe]siderophore (48 h): Medium degree

Compound: CC1=CC(=O)N([O-])CCCC(NC(=O)CN)C(=O)OCCC(C)=CC(=O)N([O-])CCCC(NC(=O)CN)C(=O)OCCC(C)=CC(=O)N([O-])CCCC(NC(=O)CN)C(=O)OCC1.[Fe+3] (stereo not shown) [[Fe]FSC(gly)3, triglycyl[Fe]FSC]
- degree of utilization / growth support by [Fe]siderophore (48 h): low degree
- concentration of [Fe]siderophore at which growth was supported: 1 µM

Compound: CC1=CC(=O)N([O-])CCCC(NC(=O)CCC(=O)O)C(=O)OCCC(C)=CC(=O)N([O-])CCCC(NC(=O)CCC(=O)O)C(=O)OCCC(C)=CC(=O)N([O-])CCCC(NC(=O)CCC(=O)O)C(=O)OCC1.[Fe+3] (stereo not shown) [[Fe]FSC(suc)3, trisuccinyl[Fe]FSC]
- growth at 50 μM [Fe]siderophore (50 μM, 48 h): no growth
- growth at 100 μM [Fe]siderophore (100 μM, 48 h): sporulation defect
- degree of utilization / growth support by [Fe]siderophore (48 h): lowest level of growth

Compound: CC1=CC(=O)N([O-])CCCC(N)C(=O)OCCC(C)=CC(=O)N([O-])CCCC(N)C(=O)OCCC(C)=CC(=O)N([O-])CCCC(N)C(=O)OCC1.[Fe+3] (stereo not shown) [[Fe]FSC, [Fe]fusarinine C, reference compound]
- concentration of [Fe]siderophore at which growth was supported: 0.1 µM

Compound: CC(=O)NC1CCCN([O-])C(=O)C=C(C)CCOC(=O)C(NC(=O)CN)CCCN([O-])C(=O)C=C(C)CCOC(=O)C(NC(=O)CN)CCCN([O-])C(=O)C=C(C)CCOC1=O.[Fe+3] (stereo not shown) [[Fe]MAFC(gly)2, diglycyl[Fe]MAFC]
- degree of utilization / growth support by [Fe]siderophore (48 h): low degree
- concentration of [Fe]siderophore at which growth was supported: 1 µM

Compound: CC(=O)NC1CCCN([O-])C(=O)C=C(C)CCOC(=O)C(NC(=O)CCC(=O)O)CCCN([O-])C(=O)C=C(C)CCOC(=O)C(NC(=O)CCC(=O)O)CCCN([O-])C(=O)C=C(C)CCOC1=O.[Fe+3] (stereo not shown) [[Fe]MAFC(suc)2, disuccinyl[Fe]MAFC]
- degree of utilization / growth support by [Fe]siderophore (48 h): low degree
- concentration of [Fe]siderophore at which growth was supported: 1 µM

Compound: CC(=O)NC1CCCN([O-])C(=O)C=C(C)CCOC(=O)C(N)CCCN([O-])C(=O)C=C(C)CCOC(=O)C(N)CCCN([O-])C(=O)C=C(C)CCOC1=O.[Fe+3] (stereo not shown) [[Fe]MAFC, acetyl[Fe]FSC]
- concentration of [Fe]siderophore at which growth was supported: 0.1 µM

Compound: CC(=O)N[C@H]1CCCN(O)C(=[OH+])/C=C(/C)CCOC(=O)[C@@H](NC(C)=O)CCCN(O)C(=[OH+])/C=C(/C)CCOC(=O)[C@@H](NC(C)=O)CCCN(O)C(=[OH+])/C=C(/C)CCOC1=O.[Fe] [[Fe]TAFC, triacetyl[Fe]FSC, reference compound]
- degree of utilization / growth support by [Fe]siderophore (48 h): Medium degree

Compound: CCC(=O)NC1CCCN([O-])C(=O)C=C(C)CCOC(=O)C(NC(=O)CC)CCCN([O-])C(=O)C=C(C)CCOC(=O)C(NC(=O)CC)CCCN([O-])C(=O)C=C(C)CCOC1=O.[Fe+3] (stereo not shown) [[Fe]TPFC, tripropanoyl[Fe]FSC]
- degree of utilization / growth support by [Fe]siderophore (48 h): Medium degree

Compound: tributanoyl[Fe]FSC [[Fe]TBuFC]
- degree of utilization / growth support by [Fe]siderophore (48 h): Medium degree
